{
  "source": "patent US11053204B2",
  "about": "“Pyrimidinyloxy benzene derivatives as herbicides” (FMC Corporation, priority 2015, dated 2021)",
  "assay_type_in_all_cases": "in vivo",
  "key": {"[1]": {"system": "kochia (Kochia scoparia)", "assay": "Test C preemergence, plant response rating"}, "[2]": {"system": "wild poinsettia (Euphorbia heterophylla)", "assay": "Test C postemergence, plant response rating", "details": "for Poinsettia, Wild plant response rating: scale 0 to 100 (0 no effect, 100 complete control)", "outline": "(§1)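 Pre-emergence: seeds sown in loam soil–sand blend or silt loam and sprayed with test chemicals in a non-phytotoxic solvent mixture with surfactant. Post-emergence: plants 2 to 18 cm (1- to 4-leaf stage) in peat-based potting medium, same formulation. Greenhouse 13 to 15 d; visual rating 0 (no effect) to 100 (complete control) versus controls.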"}, "[3]": {"system": "pigweed, palmer (palmer pigweed, Amaranthus palmeri)", "assay": "Test C postemergence, plant response rating", "details": "for Pigweed, Palmer plant response rating: scale 0 to 100 (0 no effect, 100 complete control)", "outline": "as §1"}, "[4]": {"system": "field poppy (Papaver rhoeas)", "assay": "Test C postemergence, plant response rating", "details": "for Field Poppy plant response rating: scale 0 to 100 (0 no effect, 100 complete control)", "outline": "as §1"}, "[5]": {"system": "buckwheat, wild (wild buckwheat, Polygonum convolvulus)", "assay": "Test C postemergence, plant response rating", "details": "for Buckwheat, Wild plant response rating: scale 0 to 100 (0 no effect, 100 complete control)", "outline": "as §1"}, "[6]": {"system": "surinam grass (Brachiaria decumbens)", "assay": "Test C postemergence, plant response rating", "outline": "as §1"}, "[7]": {"system": "windgrass (Apera spica-venti)", "assay": "Test C postemergence, plant response rating", "outline": "as §1"}, "[8]": {"system": "johnsongrass (Sorghum halepense)", "assay": "Test C postemergence, plant response rating", "details": "for Johnsongrass plant response rating: scale 0 to 100 (0 no effect, 100 complete control)", "outline": "as §1"}, "[9]": {"system": "field violet (Viola arvensis)", "assay": "Test C postemergence, plant response rating", "details": "for Field Violet plant response rating: scale 0 to 100 (0 no effect, 100 complete control)", "outline": "as §1"}, "[10]": {"system": "wild mustard (Sinapis arvensis)", "assay": "Test C postemergence, plant response rating", "details": "for Mustard, Wild plant response rating: scale 0 to 100 (0 no effect, 100 complete control)", "outline": "as §1"}, "[11]": {"system": "Canada thistle (Cirsium arvense)", "assay": "Test C postemergence, plant response rating", "details": "for Canada Thistle plant response rating: scale 0 to 100 (0 no effect, 100 complete control)", "outline": "as §1"}, "[12]": {"system": "geranium, cutleaf (cutleaf geranium, Geranium dissectum)", "assay": "Test C postemergence, plant response rating", "details": "for Geranium, Cutleaf plant response rating: scale 0 to 100 (0 no effect, 100 complete control)", "outline": "as §1"}, "[13]": {"system": "nightshade (eastern black nightshade, Solanum ptycanthum)", "assay": "Test C postemergence, plant response rating", "details": "for Nightshade plant response rating: scale 0 to 100 (0 no effect, 100 complete control)", "outline": "as §1"}, "[14]": {"system": "speedwell (bird's-eye speedwell, Veronica persica)", "assay": "Test C postemergence, plant response rating", "details": "for Speedwell plant response rating: scale 0 to 100 (0 no effect, 100 complete control)", "outline": "as §1"}, "[15]": {"system": "johnsongrass (Sorghum halepense)", "assay": "Test C preemergence, plant response rating"}, "[16]": {"system": "oat, wild (wild oat Avena fatua)", "assay": "Test C preemergence, plant response rating"}, "[17]": {"system": "windgrass (Apera spica-venti)", "assay": "Test C preemergence, plant response rating"}, "[18]": {"system": "pigweed, palmer (palmer pigweed, Amaranthus palmeri)", "assay": "Test C preemergence, plant response rating"}, "[19]": {"system": "wild poinsettia (Euphorbia heterophylla)", "assay": "Test C preemergence, plant response rating"}, "[20]": {"details": "125 g ai/ha, scale 0 to 100 (0 no effect, 100 complete control)"}},
  "data": [
    {"smiles": "N#Cc1cccc(Oc2ncc(Cl)cn2)c1COCCC(F)(F)F", "note": "[Compound 80]", "values": [
      {"measurement": "Plant response rating, Kochia", "setting": "[1]; 31 g ai/ha, scale 0 to 100", "result": 95},
      {"measurement": "Plant response rating, Kochia", "setting": "[1]; 62 g ai/ha, scale 0 to 100", "result": 100},
      {"measurement": "Plant response rating, Kochia", "setting": "[1]; 125 g ai/ha, scale of 0 to 100", "result": 100},
      {"measurement": "Plant response rating, Poinsettia, Wild", "setting": "[2]; 16 g ai/ha, scale of 0 to 100", "result": 65},
      {"measurement": "Plant response rating, Poinsettia, Wild", "setting": "[2]; 31 g ai/ha, scale 0 to 100", "result": 65},
      {"measurement": "Poinsettia, Wild plant response rating", "setting": "[2]; 62 g ai/ha", "result": 70},
      {"measurement": "Poinsettia, Wild plant response rating", "setting": "[2]; 125 g ai/ha", "result": 75},
      {"measurement": "Plant response rating, Pigweed, Palmer", "setting": "[3]; 16 g ai/ha, scale of 0 to 100", "result": 30},
      {"measurement": "Plant response rating, Pigweed, Palmer", "setting": "[3]; 31 g ai/ha, scale 0 to 100", "result": 35},
      {"measurement": "Pigweed, Palmer plant response rating", "setting": "[3]; 62 g ai/ha", "result": 70},
      {"measurement": "Pigweed, Palmer plant response rating", "setting": "[3]; 125 g ai/ha", "result": 60},
      {"measurement": "Plant response rating, Field Poppy", "setting": "[4]; 16 g ai/ha, scale of 0 to 100", "result": 70},
      {"measurement": "Plant response rating, Field Poppy", "setting": "[4]; 31 g ai/ha, scale 0 to 100", "result": 75},
      {"measurement": "Field Poppy plant response rating", "setting": "[4]; 62 g ai/ha", "result": 85},
      {"measurement": "Field Poppy plant response rating", "setting": "[4]; 125 g ai/ha", "result": 85},
      {"measurement": "Plant response rating, Buckwheat, Wild", "setting": "[5]; 16 g ai/ha, scale of 0 to 100", "result": 70},
      {"measurement": "Plant response rating, Buckwheat, Wild", "setting": "[5]; 31 g ai/ha, scale 0 to 100", "result": 70},
      {"measurement": "Buckwheat, Wild plant response rating", "setting": "[5]; 62 g ai/ha", "result": 75},
      {"measurement": "Buckwheat, Wild plant response rating", "setting": "[5]; 125 g ai/ha", "result": 95},
      {"measurement": "Plant response rating, Surinam Grass", "setting": "[6]; 16 g ai/ha, scale of 0 to 100", "result": 10},
      {"measurement": "Plant response rating, Surinam Grass", "setting": "[6]; 31 g ai/ha, scale 0 to 100", "result": 10},
      {"measurement": "Surinam Grass plant response rating", "setting": "[6]; [20]", "result": 25},
      {"measurement": "Plant response rating, Windgrass", "setting": "[7]; 16 g ai/ha, scale of 0 to 100", "result": 0},
      {"measurement": "Plant response rating, Windgrass", "setting": "[7]; 31 g ai/ha, scale 0 to 100", "result": 5},
      {"measurement": "Windgrass plant response rating", "setting": "[7]; [20]", "result": 30},
      {"measurement": "Plant response rating, Johnsongrass", "setting": "[8]; 16 g ai/ha, scale of 0 to 100", "result": 5},
      {"measurement": "Plant response rating, Johnsongrass", "setting": "[8]; 31 g ai/ha, scale 0 to 100", "result": 5},
      {"measurement": "Johnsongrass plant response rating", "setting": "[8]; 62 g ai/ha", "result": 5},
      {"measurement": "Johnsongrass plant response rating", "setting": "[8]; 125 g ai/ha", "result": 5},
      {"measurement": "Plant response rating, Field Violet", "setting": "[9]; 16 g ai/ha, scale of 0 to 100", "result": 75},
      {"measurement": "Plant response rating, Field Violet", "setting": "[9]; 31 g ai/ha, scale 0 to 100", "result": 85},
      {"measurement": "Field Violet plant response rating", "setting": "[9]; 62 g ai/ha", "result": 90},
      {"measurement": "Field Violet plant response rating", "setting": "[9]; 125 g ai/ha", "result": 95},
      {"measurement": "Plant response rating, Mustard, Wild", "setting": "[10]; 16 g ai/ha, scale of 0 to 100", "result": 75},
      {"measurement": "Plant response rating, Mustard, Wild", "setting": "[10]; 31 g ai/ha, scale 0 to 100", "result": 80},
      {"measurement": "Mustard, Wild plant response rating", "setting": "[10]; 62 g ai/ha", "result": 80},
      {"measurement": "Mustard, Wild plant response rating", "setting": "[10]; 125 g ai/ha", "result": 90},
      {"measurement": "Plant response rating, Canada Thistle", "setting": "[11]; 16 g ai/ha, scale of 0 to 100", "result": 75},
      {"measurement": "Plant response rating, Canada Thistle", "setting": "[11]; 31 g ai/ha, scale 0 to 100", "result": 75},
      {"measurement": "Canada Thistle plant response rating", "setting": "[11]; 62 g ai/ha", "result": 75},
      {"measurement": "Canada Thistle plant response rating", "setting": "[11]; 125 g ai/ha", "result": 85},
      {"measurement": "Plant response rating, Geranium, Cutleaf", "setting": "[12]; 16 g ai/ha, scale of 0 to 100", "result": 30},
      {"measurement": "Plant response rating, Geranium, Cutleaf", "setting": "[12]; 31 g ai/ha, scale 0 to 100", "result": 35},
      {"measurement": "Geranium, Cutleaf plant response rating", "setting": "[12]; 62 g ai/ha", "result": 35},
      {"measurement": "Geranium, Cutleaf plant response rating", "setting": "[12]; 125 g ai/ha", "result": 60},
      {"measurement": "Plant response rating, Nightshade", "setting": "[13]; 16 g ai/ha, scale of 0 to 100", "result": 60},
      {"measurement": "Plant response rating, Nightshade", "setting": "[13]; 31 g ai/ha, scale 0 to 100", "result": 65},
      {"measurement": "Nightshade plant response rating", "setting": "[13]; 62 g ai/ha", "result": 70},
      {"measurement": "Nightshade plant response rating", "setting": "[13]; 125 g ai/ha", "result": 75},
      {"measurement": "Plant response rating, Speedwell", "setting": "[14]; 16 g ai/ha, scale of 0 to 100", "result": 90},
      {"measurement": "Plant response rating, Speedwell", "setting": "[14]; 31 g ai/ha, scale 0 to 100", "result": 100},
      {"measurement": "Speedwell plant response rating", "setting": "[14]; 62 g ai/ha", "result": 100},
      {"measurement": "Speedwell plant response rating", "setting": "[14]; 125 g ai/ha", "result": 100},
      {"measurement": "Plant response rating, Johnsongrass", "setting": "[15]; 31 g ai/ha, scale 0 to 100", "result": 30},
      {"measurement": "Plant response rating, Johnsongrass", "setting": "[15]; 62 g ai/ha, scale 0 to 100", "result": 55},
      {"measurement": "Plant response rating, Johnsongrass", "setting": "[15]; 125 g ai/ha, scale of 0 to 100", "result": 60},
      {"measurement": "Plant response rating, Oat, Wild", "setting": "[16]; 31 g ai/ha, scale 0 to 100", "result": 0},
      {"measurement": "Plant response rating, Oat, Wild", "setting": "[16]; 62 g ai/ha, scale 0 to 100", "result": 10},
      {"measurement": "Plant response rating, Oat, Wild", "setting": "[16]; 125 g ai/ha, scale of 0 to 100", "result": 30},
      {"measurement": "Plant response rating, Windgrass", "setting": "[17]; 31 g ai/ha, scale 0 to 100", "result": 60},
      {"measurement": "Plant response rating, Windgrass", "setting": "[17]; 62 g ai/ha, scale 0 to 100", "result": 100},
      {"measurement": "Plant response rating, Windgrass", "setting": "[17]; 125 g ai/ha, scale of 0 to 100", "result": 100},
      {"measurement": "Plant response rating, Pigweed, Palmer", "setting": "[18]; 31 g ai/ha, scale 0 to 100", "result": 85},
      {"measurement": "Plant response rating, Pigweed, Palmer", "setting": "[18]; 62 g ai/ha, scale 0 to 100", "result": 100},
      {"measurement": "Plant response rating, Pigweed, Palmer", "setting": "[18]; 125 g ai/ha, scale of 0 to 100", "result": 98},
      {"measurement": "Plant response rating, Poinsettia, Wild", "setting": "[19]; 31 g ai/ha, scale 0 to 100", "result": 30},
      {"measurement": "Plant response rating, Poinsettia, Wild", "setting": "[19]; 62 g ai/ha, scale 0 to 100", "result": 40},
      {"measurement": "Plant response rating, Poinsettia, Wild", "setting": "[19]; 125 g ai/ha, scale of 0 to 100", "result": 85}
    ]}
  ]
}
